Active and inactive are the calls of the source. Cut-off read from the data, not from the text of the source: active = IC50 below about 9 µM; inactive = the rest.
Target: Tyrosine-protein kinase JAK2 (Homo sapiens) (UniProt O60674)
Assay: JAK2V617F project follow-up: kinase, reporter, cytotoxicity – HEL and Ba/F3 cells, late-stage follow-up (AID 2165)
Conditions: JAK2V617F panel: kinase, IRF1 reporter

Sequence of Tyrosine-protein kinase JAK2 (Homo sapiens) (O60674 whole entry, looked up, change not shown): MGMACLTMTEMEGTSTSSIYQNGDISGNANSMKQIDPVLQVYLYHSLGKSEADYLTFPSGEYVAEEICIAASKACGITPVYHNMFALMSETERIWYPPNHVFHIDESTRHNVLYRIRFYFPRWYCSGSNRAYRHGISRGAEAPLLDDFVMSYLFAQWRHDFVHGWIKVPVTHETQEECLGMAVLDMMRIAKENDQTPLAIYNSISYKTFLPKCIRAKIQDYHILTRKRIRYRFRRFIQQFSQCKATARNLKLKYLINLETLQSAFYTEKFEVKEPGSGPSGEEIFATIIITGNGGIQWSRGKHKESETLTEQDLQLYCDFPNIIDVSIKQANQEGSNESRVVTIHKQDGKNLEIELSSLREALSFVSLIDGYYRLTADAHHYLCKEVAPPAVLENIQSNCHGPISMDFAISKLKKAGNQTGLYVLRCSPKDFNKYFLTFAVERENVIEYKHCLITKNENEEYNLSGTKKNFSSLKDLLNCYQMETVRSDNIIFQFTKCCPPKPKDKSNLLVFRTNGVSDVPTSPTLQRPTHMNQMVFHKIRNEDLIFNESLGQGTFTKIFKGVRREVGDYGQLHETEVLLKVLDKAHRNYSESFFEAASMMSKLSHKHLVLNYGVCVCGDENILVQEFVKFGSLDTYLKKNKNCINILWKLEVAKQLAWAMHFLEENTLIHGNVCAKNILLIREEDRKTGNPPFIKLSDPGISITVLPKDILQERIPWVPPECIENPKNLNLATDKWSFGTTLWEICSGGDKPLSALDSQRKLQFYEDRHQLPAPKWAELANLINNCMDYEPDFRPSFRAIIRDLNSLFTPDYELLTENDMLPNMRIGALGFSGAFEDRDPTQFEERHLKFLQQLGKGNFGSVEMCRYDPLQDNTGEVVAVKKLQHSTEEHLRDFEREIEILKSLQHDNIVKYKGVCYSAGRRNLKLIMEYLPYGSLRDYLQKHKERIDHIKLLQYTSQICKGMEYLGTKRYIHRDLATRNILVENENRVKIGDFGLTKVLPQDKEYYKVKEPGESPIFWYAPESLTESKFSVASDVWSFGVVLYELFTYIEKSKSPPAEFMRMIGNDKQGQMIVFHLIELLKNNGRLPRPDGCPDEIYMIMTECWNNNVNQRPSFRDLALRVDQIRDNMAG

SMILES	IC50 (HEL, irf1 reporter)	IC50 (JAK2V617F)	IC50 (Ba/F3, irf1 reporter)
COc1cccc(Nc2ncnc3cc(OC)c(OC)cc23)c1	3.54 µM	> 40 µM (inactive)	
O=C(Nc1cccc(NC(=O)c2cccs2)c1)c1ccc([N+](=O)[O-])o1	3.31 µM		4.5 µM
Cc1nnc(NC(=O)COc2ccccc2)s1	> 40 µM (inactive)	> 40 µM (inactive)	
Cc1oc2c(O)c(O)ccc2c(=O)c1-c1cnn(-c2ccccc2)c1	8.52 µM		12.8 µM
Cc1ccc(C=CC(=O)c2c3c(c(C)[nH]c2=O)CCCC3)cc1	23.9 µM	3.38 µM	6.04 µM
CCCC(=O)N(C1CC(C)C(C#N)(C#N)C1(C#N)C#N)N(C)C (configuration not stated)	5.75 µM		0.452 µM
CCOc1ccc(Nc2nc(N)nc(CCl)n2)cc1	0.452 µM		11.2 µM
N#CC(=Cc1ccc(O)c(O)c1)C(=S)NCc1ccccc1	> 40 µM (inactive)	1.92 µM	0.62 µM
O=C(C=Cc1ccccc1F)c1c(-c2ccccc2)c2ccccc2[nH]c1=O	0.39 µM	0.39 µM	0.39 µM
O=C(O)c1[nH]c(=O)[nH]c(=O)c1F	> 40 µM (inactive)		> 40 µM (inactive)
O=S(=O)(c1cccs1)N1CCN(c2ccc(O)cc2)CC1	20.9 µM		7.02 µM
CS(=O)(=O)c1nc(-c2ccco2)cc(C(F)(F)F)n1	7.42 µM		0.869 µM
COc1cccc(N(C(=O)CCl)C(C(=O)NCCc2ccccc2)c2cccs2)c1 (configuration not stated)	1.04 µM		2.76 µM
Nc1nc(CCl)nc(Nc2ccc3ccccc3c2)n1	0.958 µM		7.46 µM
COc1ccc(-n2nnnc2SCC(=O)c2ccc(O)c(O)c2)cc1	25.5 µM		6.22 µM
Cc1nc([N+](=O)[O-])c(Br)n1Cc1ccc(Cl)c(Cl)c1	4.58 µM		2.62 µM

SMILES	IC50 (HEL, irf1 reporter)	IC50 (JAK2V617F)	IC50 (Ba/F3, irf1 reporter)
Cc1[nH]c(=O)c(C(=O)C=Cc2ccccc2Cl)c2c1CCCC2	0.53 µM	0.13 µM	0.214 µM
CCOc1ccc(C(=O)C(CN2CCOCC2)c2ccccc2)cc1 (configuration not stated)	11 µM		16.6 µM
O=C(CCl)N=c1sccn1Cc1ccccc1Cl	1.62 µM		9.38 µM
CC(C)(C)/C(O)=C/c1nc2cc(Cl)ccc2oc1=O	12.6 µM		4.13 µM
Cc1ccc(O)c(NC(=O)COc2ccc(C)c(C)c2)c1		> 40 µM (inactive)	
Cc1cccc(OCC(=O)Nc2ccc(C)c(C)c2)c1		> 40 µM (inactive)	
Cc1c(Cc2ccccc2)c(=O)oc2c(O)c(O)ccc12	31.9 µM		6.58 µM
COc1cc2ncnc(N[C@H](C)c3ccccc3)c2cc1OC	13.1 µM	3.18 µM	
CC(C)(C)c1cc(NC(=O)CCl)n(-c2ccccc2)n1	9.96 µM		8.46 µM
CCCn1c(CC)nc([N+](=O)[O-])c1S(=O)(=O)c1ccccc1	4.36 µM		4.37 µM
COC(=O)/C=C/c1ccc(OC(=O)OC)c(OC(=O)OC)c1	27.7 µM		12.6 µM
N#CC(C#N)=Cc1cc(O)c(O)c(I)c1	19.6 µM	8.82 µM	5.01 µM
O=S(=O)(c1cnc(Cl)c(Br)c1)N1CCc2ccccc21	> 40 µM (inactive)		6.61 µM
COc1cc2ncnc(Nc3ccccc3)c2cc1OC	5.92 µM	> 40 µM (inactive)	
C/C(=C\c1ccc(N(C)C)cc1)[N+](=O)[O-]	4.29 µM		2.65 µM
C=CCNc1ncnc2cc(OC)c(OC)cc12	> 40 µM (inactive)	> 40 µM (inactive)	

From PubChem BioAssay AID2165 (The Scripps Research Institute Molecular Screening Center, 2009)
